Key:
[1] = physchem; details: reversed-phase HPLC column (C 18)
[2] = system: Puccinia recondita f. Sp. tritici; assay: In vivo preventive test on Puccinia recondita f. Sp. tritici (wheat brown rust); details: topical, 240 h, 1000 ppm of active ingredient, evaluated 10 days after inoculation, read-out: efficacy
[3] = system: Heliotis virescens; assay: Heliotis virescens test (HELIVI spray application); type: in vivo; details: soybean leaf sections, concentration and time not stated
[4] = system: Erysiphe graminis f. sp. hordei; assay: In vivo preventive test on Erysiphe gramini (powdery mildew on barley); details: Blumeria graminis, 168 h, 1000 ppm of active ingredient, evaluated 7 days after inoculation, read-out: efficacy
[5] = system: Podosphaera leucotricha; assay: In vivo protective test on Podosphaera leucotricha (apples); details: topical, 240 h, 100 ppm of active ingredient, evaluated 10 days after inoculation, read-out: efficacy
[6] = system: Sphaerotheca fuliginea; assay: In vivo protective test on Sphaerotheca fuliginea (cucumbers); details: Podosphaera fuliginea, 168 h, 100 ppm of active ingredient, evaluated 7 days after inoculation, read-out: efficacy
[7] = system: Alternaria solani; assay: In vivo protective test on Alternaria solani (leaf spot of tomato); details: 168 h, 500 ppm of active ingredient, evaluated 7 days after inoculation, read-out: efficacy

| SMILES | chromatographic logP [1] | pest or weed control at 1000 ppm [2] | activity (mortality of eggs) [3] | pest or weed control at 1000 ppm [4] | pest or weed control at 100 ppm [5] | pest or weed control at 100 ppm [6] | pest or weed control at 500 ppm [7] |
| --- | --- | --- | --- | --- | --- | --- | --- |
| Cc1cc(Oc2nc(Cl)c(C)s2)c(C)cc1/N=C/N(C)C(C)C [Compound 1.23] | 1.94 | ≥ 70% | good activity | ≥ 70% |  |  |  |
| Cc1cc(Oc2nc(Cl)c(Br)s2)c(C)cc1/N=C/N(C)C(C)C [Compound 1.11] | 2.22 | ≥ 70% | good activity | ≥ 70% | ≥ 70% | ≥ 70% |  |
| CCN(C)/C=N/c1cc(C)c(Oc2nc(C)c(Cl)s2)cc1C [Compound 1.12] | 1.98 | ≥ 70% |  | ≥ 70% | ≥ 70% | ≥ 70% | ≥ 70% |

Reference: US8933107B2, “Pesticide thiazolyloxy substituted phenylamidine derivatives” (Bayer Cropscience AG, priority 2005, dated 2015)
